Data published in patent US20050070601A1, “Psychostimulant Effects of Forskolin Including Anorexia” (CREATIVE COMPOUNDS, LLC, priority 2003, published 2005).
“And” between values parts separate entries of the source, which are not always exact repeats. Identical values can stand only once.

What was measured:
humans = assay: Test of forskolin as anorectic agent in humans; design: species or system human; settings: in vivo
Description: Because nearly all psychostimulants have been or are being used as extremely effective appetite suppressants, the inventors decided to test the hypothesis that forskolin would be an effective anorectic agent. […] This anorectic effect is dose dependent and works increasingly until the dosage of 500 mg per day of forskolin. Most tested individuals noticed the appetite suppression effects above 75 mg per day of forskolin; however, a few individuals noticed slight effects down to 30 mg per day.

[1] = tested on: overweight individuals who claimed to have a problem controlling their appetite; assay: Appetite suppression: self-rated level of appetite before and after administration (Example 2); format: in vivo, human
Description: The forskolin was administered three times per day for five days. Subjects were asked to evaluate the level of their appetite from a scale of 1 to 10 (10 being the greatest). […] Some of the subjects even reported that they felt no desire to eat within 30 minutes after administration even though before administration they felt “extremely hungry”.

individuals = assay: Psychostimulant effect: self-rated wakefulness/alertness before and one hour after administration (Example 1); format: in vivo, human; settings: scale of 1 to 10 (10 greatest), one value per subject, average of three days, 100 mg twice daily as 40% Coleus forskohli extract capsules
Description: The forskolin was administered one hour after waking and one hour before bedtime. Subjects were asked to evaluate their level of wakefulness/alertness on a scale of 1 to 10 (10 being the greatest) both before administration and one hour after administration. […] All of the subjects perceived an increase in their level of wakefulness/alertness both in the morning and in the evening. These times were chosen due to the fact that most people have a greater degree of sleepiness or a greater degree of having problems with mental alertness during these times of the day.

Test subjects = assay: Experimenting with higher daily dosages: psychostimulant effect in test subjects; format: in vivo, human
Description: While experimenting with forskolin in much higher daily dosages, the inventors discovered new and as yet undiscovered uses for forskolin and Coleus forskohli and its extracts. The novel effects became quite evident and noticeable upon administering 150 mg per day of forskolin in the form of a 20% Coleus forskohli extract. […] The dosages of forskolin that precipitate the best psychostimlant properties seem to be above 100 mg but can be below this level for some highly sensitive people.

[2] = scale of 1 to 10 (10 greatest), after dose, one value per subject, average of five days, 100 mg sixty minutes before meals, three times per day, 40% extract capsules
[3] = scale of 1 to 10 (10 greatest), before dose, one value per subject, average of five days, 100 mg sixty minutes before meals, three times per day, 40% extract capsules

C=C[C@@]1(C)CC(=O)[C@]2(O)[C@@]3(C)[C@@H](O)CCC(C)(C)[C@@H]3[C@H](O)[C@H](OC(C)=O)[C@@]2(C)O1 [forskolin, Forskolin]
dosage above which most tested individuals noticed the appetite suppression effects (humans): above 75 mg per day
dosage down to which a few individuals noticed slight appetite suppression effects (humans): ≥ 30 mg per day
dosage until which the dose dependent anorectic effect works increasingly (humans): ≤ 500 mg per day
AB: level of appetite, Breakfast, After Administration [1, 2]: 5 and 3 and 4
AD: level of appetite, Dinner, After Administration [1, 2]: 8 and 3 and 5
AL: level of appetite, Lunch, After Administration [1, 2]: 7 and 3 and 5
BB: level of appetite, Breakfast, Before Administration [1, 3]: 6 and 8 and 4
BD: level of appetite, Dinner, Before Administration [1, 3]: 9 and 10 and 7
BL: level of appetite, Lunch, Before Administration [1, 3]: 9 and 10 and 8
time after administration within which some subjects felt no desire to eat ([1]; some of the subjects, "extremely hungry" before administration): ≤ 30 min
MBA: level of wakefulness/alertness, morning, before administration (individuals; baseline before dose): 3 (2×) and 2 and 7 (2×)
EBA: level of wakefulness/alertness, evening, before administration (individuals; before evening dose): 6 (2×) and 5 and 7 (2×)
EAA: level of wakefulness/alertness, evening, after administration (individuals; one hour after administration): 7 and 9 and 5 and 10 and 8
MAA: level of wakefulness/alertness, morning, after administration (individuals; one hour after administration): 5 (2×) and 7 and 8 and 10
dosages that precipitate the best psychostimulant properties (Test subjects; can be below this level for some highly sensitive people): above 100 mg
untoward central nervous system stimulating effects (jitteriness, nervousness, increased blood pressure, heart rate or respiratory rate) (Test subjects; human, in vivo): did not cause any untoward central nervous system stimulating effects
